The values that follow come from US20230167127A1, “COMPOUNDS AND THEIR USE IN THE TREATMENT OF BACTERIAL INFECTION” (Hoffmann-La Roche Inc., priority 2020, published 2023).

Bounds are passed on as bounds.

This assay relates to Escherichia coli ATCC 25922. Nature of the assay: 50% growth inhibitory concentration (IC50) determination, Iso-Sensitest broth dilution. The format is cell-based. Particulars: Escherichia coli, ATCC25922, 16 h, strain Escherichia coli ATCC 25922; 10-point broth dilution, optical density at 600 nm over 16 h; read-out: Escherichia coli growth inhibition IC50. In outline: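 10-point twofold Iso-Sensitest broth dilution (e.g. 50 to 0.097 μM final) with DMSO stocks, incubated at 35±2° C. Growth followed by OD 600 nm every 20 min over 16 h; IC50 derived from growth inhibition during logarithmic phase.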
Background: In broth dilution the organism is exposed to a series of concentrations in liquid medium.

A word on the IC50: it is the concentration at which inhibition is half-maximal. Consider `COc1ncc(F)c2c1CC(CNCCC1CN(c3cnc4c(n3)NC(=O)CO4)C(=O)O1)C2` (stereo not drawn) [Example 71, 6-[5-[2-[(4-fluoro-1-methoxy-6,7-dihydro-5H-cyclopenta[c]pyridin-6-yl)methylamino]ethyl]-2-oxo-oxazolidin-3-yl]-4H-pyrazino[2,3-b][1,4]oxazin-3-one], for which the IC50 was under 0.0977 µM.
For `Cc1c(OCC2(N)CC2)nc(-c2nccs2)c2c1CC(CNCCC1CN(c3ccc4c(n3)NC(=O)CO4)C(=O)O1)C2` (stereo not drawn) [Example 218, 6-[5-[2-[[3-[(1-aminocyclopropyl)methoxy]-4-methyl-1-(1,3-thiazol-2-yl)-6,7-dihydro-5H-cyclopenta[c]pyridin-6-yl]methylamino]ethyl]-2-oxo-1,3-oxazolidin-3-yl]-4H-pyrido[3,2-b][1,4]oxazin-3-one], the IC50 was under 0.0977 µM.
Regarding `NC1c2c(Cl)cccc2CC1CNCCC1CN(c2ccc3c(n2)NC(=O)CO3)C(=O)O1` (racemic) [Example 168, 6-[2-oxo-5-[2-[[rac-1,2-trans-1-amino-7-chloro-2,3-dihydro-1H-inden-2-yl]methylamino]ethyl]-1,3-oxazolidin-3-yl]-4H-pyrido[3,2-b][1,4]oxazin-3-one; formic acid], the IC50 was under 0.0977 µM.
Take `Cc1c(F)cnc2c1CC(CN1CCC3(CC1)CN(c1cnc4c(n1)NC(=O)CO4)C(=O)O3)C2` (stereo not drawn) [Example 301, 6-[8-[(3-fluoro-4-methyl-6,7-dihydro-5H-cyclopenta[b]pyridin-6-yl)methyl]-2-oxo-1-oxa-3,8-diazaspiro[4.5]decan-3-yl]-4H-pyrazino[2,3-b][1,4]oxazin-3-one]: the IC50 was under 0.0977 µM.
Turning to `Cc1nccc2c1CC(CNCCC1CN(c3ccc4c(n3)NC(=O)CO4)C(=O)O1)C2` (stereo not drawn) [Example 88, 6-[5-[2-[(1-methyl-6,7-dihydro-5H-cyclopenta[c]pyridin-6-yl)methylamino]ethyl]-2-oxo-1,3-oxazolidin-3-yl]-4H-pyrido[3,2-b][1,4]oxazin-3-one], the IC50 was 0.168 µM.
`N#Cc1nc(OCCN)cc2c1CC(CNCCC1CN(c3ccc4c(n3)NC(=O)CO4)C(=O)O1)C2` (stereo not drawn) [Example 127, 3-(2-aminoethoxy)-6-[[2-[2-oxo-3-(3-oxo-4H-pyrido[3,2-b][1,4]oxazin-6-yl)-1,3-oxazolidin-5-yl]ethylamino]methyl]-6,7-dihydro-5H-cyclopenta[c]pyridine-1-carbonitrile; formic acid]: the IC50 was found to be 0.189 µM.
`N#Cc1cc(OCc2cocn2)cc2c1CC(CNCCC1CN(c3cnc4c(n3)NC(=O)CO4)C(=O)O1)C2` (stereo not drawn) [Example 386, 6-(1,3-oxazol-4-ylmethoxy)-2-[[2-[2-oxo-3-(3-oxo-4H-pyrazino[2,3-b][1,4]oxazin-6-yl)-1,3-oxazolidin-5-yl]ethylamino]methyl]-2,3-dihydro-1H-indene-4-carbonitrile]: the IC50 is under 0.0977 µM.
As to `CNC(=O)COc1cc2c(c(Cl)n1)CC(CNCCC1CN(c3ccc4c(n3)NC(=O)CO4)C(=O)O1)C2` (stereo not drawn) [Example 66, 2-[[1-chloro-6-[[2-[2-oxo-3-(3-oxo-4H-pyrido[3,2-b][1,4]oxazin-6-yl)oxazolidin-5-yl]ethylamino]methyl]-6,7-dihydro-5H-cyclopenta[c]pyridin-3-yl]oxy]-N-methyl-acetamide], the IC50 came out at 0.234 µM.
On to `CNC(=O)COc1ncc2c(c1C)CC(CNCCC1CN(c3ccc4c(n3)NC(=O)CO4)C(=O)O1)C2` (stereo not drawn) [Example 223, N-methyl-2-((4-methyl-6-(((2-(2-oxo-3-(3-oxo-3,4-dihydro-2H-pyrido[3,2-b][1,4]oxazin-6-yl)oxazolidin-5-yl)ethyl)amino)methyl)-6,7-dihydro-5H-cyclopenta[c]pyridin-3-yl)oxy)acetamide], for which the IC50 turned out to be 0.389 µM.
In the case of `N#Cc1cccc2c1CC(CNCC1CN(c3ccc4c(n3)NC(=O)CO4)C(=O)O1)C2N` (racemic) [Example 229, rac-1,2-trans-1-Amino-2-((((2-oxo-3-(3-oxo-3,4-dihydro-2H-pyrido[3,2-b][1,4]oxazin-6-yl)oxazolidin-5-yl)methyl)amino)methyl)-2,3-dihydro-1H-indene-4-carbonitrile] it was 1.57 µM; in that of `Cc1ncc(F)c2c1CC(CNCCC1(CN)CN(c3ccc4c(n3)NC(=O)CO4)C(=O)O1)C2` (stereo not drawn) [Example 242, 6-[5-(Aminomethyl)-5-[2-[(4-fluoro-1-methyl-6,7-dihydro-5H-cyclopenta[c]pyridin-6-yl)methylamino]ethyl]-2-oxo-1,3-oxazolidin-3-yl]-4H-pyrido[3,2-b][1,4]oxazin-3-one], 0.778 µM.
For `COc1cc2c(c(Cl)n1)CC(CNCCC1CN(c3ccc4c(n3)NC(=O)CO4)C(=O)O1)C2` (stereo not drawn) [Example 49, 6-[5-[2-[(1-chloro-3-methoxy-6,7-dihydro-5H-cyclopenta[c]pyridin-6-yl)methylamino]ethyl]-2-oxo-1,3-oxazolidin-3-yl]-4H-pyrido[3,2-b][1,4]oxazin-3-one], the IC50 was found to be 0.193 µM.
Consider `CC(C)(N)COc1cc(F)c2c(c1)CC(CNCC[C@H]1CN(c3cnc4c(n3)NC(=O)CO4)C(=O)O1)C2` (stereo partly drawn) [Example 341, 6-[(5S)-5-[2-[[6-(2-amino-2-methylpropoxy)-4-fluoro-2,3-dihydro-1H-inden-2-yl]methylamino]ethyl]-2-oxo-1,3-oxazolidin-3-yl]-4H-pyrazino[2,3-b][1,4]oxazin-3-one; formic acid], for which the IC50 is under 0.0977 µM.
In the case of `CNC(=O)COc1cc(C)c2c(c1C)CC(CNCCC1CN(c3cnc4c(n3)NC(=O)CO4)C(=O)O1)C2` (stereo not drawn) [Example 113, 2-[[4,7-dimethyl-2-[[2-[2-oxo-3-(3-oxo-4H-pyrazino[2,3-b][1,4]oxazin-6-yl)-1,3-oxazolidin-5-yl]ethylamino]methyl]-2,3-dihydro-1H-inden-5-yl]oxy]-N-methylacetamide] it was 0.323 µM.
The figure for `N#Cc1cccc2c1CC(CN1CCC3(CN(c4ccc5c(n4)NC(=O)CO5)C(=O)O3)C(CN)C1)C2` (racemic) [Example 249, 2-[[rac-5,6-trans-6-(Aminomethyl)-2-oxo-3-(3-oxo-4H-pyrido[3,2-b][1,4]oxazin-6-yl)-1-oxa-3,8-diazaspiro[4.5]decan-8-yl]methyl]-2,3-dihydro-1H-indene-4-carbonitrile; formic acid] is 0.108 µM; for `Cc1ncc(C#N)c2c1CC(CNCC[C@H]1CN(c3cnc4c(n3)NC(=O)CO4)C(=O)O1)C2` (stereo partly drawn) [Example 364, 1-methyl-6-[[2-[(5S)-2-oxo-3-(3-oxo-4H-pyrazino[2,3-b][1,4]oxazin-6-yl)-1,3-oxazolidin-5-yl]ethylamino]methyl]-6,7-dihydro-5H-cyclopenta[c]pyridine-4-carbonitrile] it is under 0.0977 µM; for `Cc1nccc2c1CC(CNCCC1CN(c3ccc4c(n3)NC(=O)CO4)C(=O)O1)C2N` (racemic) [Example 130, 6-[2-oxo-5-[2-[(rac-5,6-trans-5-amino-1-methyl-6,7-dihydro-5H-cyclopenta[c]pyridin-6-yl)methylamino]ethyl]-1,3-oxazolidin-3-yl]-4H-pyrido[3,2-b][1,4]oxazin-3-one; formic acid] it is 0.868 µM.
The figure for `Cc1ncc2c(c1F)CC(CNCC[C@@H]1CN(c3cnc4c(n3)NC(=O)CO4)C(=O)O1)C2` (stereo partly drawn) [Example 339, 6-[(5R)-5-[2-[(4-fluoro-3-methyl-6,7-dihydro-5H-cyclopenta[c]pyridin-6-yl)methylamino]ethyl]-2-oxo-1,3-oxazolidin-3-yl]-4H-pyrazino[2,3-b][1,4]oxazin-3-one] is 0.145 µM; for `N[C@H](CO)COc1ncc2c(c1Cl)CC(CNCCC1CN(c3ccc4c(n3)NC(=O)CO4)C(=O)O1)C2` (stereo partly drawn) [Example 237, 6-[5-[2-[[4-Chloro-3-[(2R)-2-amino-3-hydroxypropoxy]-6,7-dihydro-5H-cyclopenta[c]pyridin-6-yl]methylamino]ethyl]-2-oxo-1,3-oxazolidin-3-yl]-4H-pyrido[3,2-b][1,4]oxazin-3-one] it is 0.14 µM.
`N[C@@H]1c2cc(OCC3(N)CC3)cc(Cl)c2C[C@H]1CN1CCC2(CC1)CN(c1ccc3c(n1)NC(=O)CO3)C(=O)O2` (racemic) [Example 274, 6-[2-Oxo-8-[[rac-1,2-trans-1-amino-6-[(1-aminocyclopropyl)methoxy]-4-chloro-2,3-dihydro-1H-inden-2-yl]methyl]-1-oxa-3,8-diazaspiro[4.5]decan-3-yl]-4H-pyrido[3,2-b][1,4]oxazin-3-one; formic acid]: the IC50 was under 0.0977 µM.
In the case of `C[C@@H](N)COc1cc(F)c2c(c1)CC(CN1CCC3(CC1)CN(c1cnc4c(n1)NC(=O)CO4)C(=O)O3)C2` (stereo partly drawn) [Example 357, 6-[8-[[6-[(2R)-2-aminopropoxy]-4-fluoro-2,3-dihydro-1H-inden-2-yl]methyl]-2-oxo-1-oxa-3,8-diazaspiro[4.5]decan-3-yl]-4H-pyrazino[2,3-b][1,4]oxazin-3-one; formic acid] it was under 0.0977 µM; in that of `CNC(=O)COc1cc(C)c2c(c1C#N)CC(CNCCC1CN(c3cnc4c(n3)NC(=O)CO4)C(=O)O1)C2` (stereo not drawn) [Example 384, 2-[[4-cyano-7-methyl-2-[[2-[2-oxo-3-(3-oxo-4H-pyrazino[2,3-b][1,4]oxazin-6-yl)-1,3-oxazolidin-5-yl]ethylamino]methyl]-2,3-dihydro-1H-inden-5-yl]oxy]-N-methylacetamide], 0.167 µM; in that of `N#Cc1c(OCC2CCCN2)ccc2c1CC(CNCCC1CN(c3ccc4c(n3)NC(=O)CO4)C(=O)O1)C2` (stereo not drawn) [Example 141, 2-[[2-[2-oxo-3-(3-oxo-4H-pyrido[3,2-b][1,4]oxazin-6-yl)-1,3-oxazolidin-5-yl]ethylamino]methyl]-5-(pyrrolidin-2-ylmethoxy)-2,3-dihydro-1H-indene-4-carbonitrile; formic acid], 0.186 µM.
In the case of `N#Cc1cccc2c1CC(CNCCC1CN(c3ccc4c(n3)NC(=O)CS4)C(=O)O1)C2N` (racemic) [Example 247, rac-1,2-trans-1-amino-2-[[2-[2-oxo-3-(3-oxo-4H-pyrido[3,2-b][1,4]thiazin-6-yl)-1,3-oxazolidin-5-yl]ethylamino]methyl]-2,3-dihydro-1H-indene-4-carbonitrile] it was under 0.0977 µM.
